Data set [1] concerns Liver microsomes. As to the kind of experiment: Drug metabolism in human liver microsomes assessed as glutathione adduct formation relative to clozapine. It is filed as ADME, Microsome.
Data set [2] is described as follows: Octanol-water partition coefficient, log D of the compound by HPLC analysis.
The target of data set [3] is T1, Hexokinase-4 (Homo sapiens, UniProt P35557).
T1 sequence (P35557 whole entry): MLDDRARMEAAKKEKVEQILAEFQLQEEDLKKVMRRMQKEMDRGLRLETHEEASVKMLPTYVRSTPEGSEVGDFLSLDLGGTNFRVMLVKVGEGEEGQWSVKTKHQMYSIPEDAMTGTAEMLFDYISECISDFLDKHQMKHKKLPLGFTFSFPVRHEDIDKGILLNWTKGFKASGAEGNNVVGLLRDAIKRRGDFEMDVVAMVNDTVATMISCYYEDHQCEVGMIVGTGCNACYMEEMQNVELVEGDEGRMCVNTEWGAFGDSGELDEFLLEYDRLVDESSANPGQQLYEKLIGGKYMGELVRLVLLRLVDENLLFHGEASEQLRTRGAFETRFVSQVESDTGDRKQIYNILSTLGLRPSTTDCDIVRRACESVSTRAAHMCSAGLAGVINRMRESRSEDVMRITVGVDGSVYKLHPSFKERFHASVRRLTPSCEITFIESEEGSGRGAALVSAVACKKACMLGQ
As to the kind of experiment: Activation of human glucokinase.

Data set [4] in a line: Volume of distribution at steady state in rat. Format: ADME, organism-based. Conditions: in vivo, read-out: Vdss.
Data set [5] in a line: Oral bioavailability in rat. Format: ADME, organism-based. To be noted: in vivo.
The test system of data set [6] is Hepatocyte. As to the kind of experiment: Intrinsic clearance in rat hepatocytes assessed per 10^6 cells. Format: ADME, cell-based.
Data set [7] in a line: Clearance in rat. It is filed as ADME, organism-based. Conditions: in vivo.
Data set [8] can be described thus: Solubility of the compound.
For data set [9], the target named is Voltage-gated inwardly rectifying potassium channel KCNH2 (Homo sapiens, UniProt Q12809).
Voltage-gated inwardly rectifying potassium channel KCNH2, sequence (Q12809 whole entry): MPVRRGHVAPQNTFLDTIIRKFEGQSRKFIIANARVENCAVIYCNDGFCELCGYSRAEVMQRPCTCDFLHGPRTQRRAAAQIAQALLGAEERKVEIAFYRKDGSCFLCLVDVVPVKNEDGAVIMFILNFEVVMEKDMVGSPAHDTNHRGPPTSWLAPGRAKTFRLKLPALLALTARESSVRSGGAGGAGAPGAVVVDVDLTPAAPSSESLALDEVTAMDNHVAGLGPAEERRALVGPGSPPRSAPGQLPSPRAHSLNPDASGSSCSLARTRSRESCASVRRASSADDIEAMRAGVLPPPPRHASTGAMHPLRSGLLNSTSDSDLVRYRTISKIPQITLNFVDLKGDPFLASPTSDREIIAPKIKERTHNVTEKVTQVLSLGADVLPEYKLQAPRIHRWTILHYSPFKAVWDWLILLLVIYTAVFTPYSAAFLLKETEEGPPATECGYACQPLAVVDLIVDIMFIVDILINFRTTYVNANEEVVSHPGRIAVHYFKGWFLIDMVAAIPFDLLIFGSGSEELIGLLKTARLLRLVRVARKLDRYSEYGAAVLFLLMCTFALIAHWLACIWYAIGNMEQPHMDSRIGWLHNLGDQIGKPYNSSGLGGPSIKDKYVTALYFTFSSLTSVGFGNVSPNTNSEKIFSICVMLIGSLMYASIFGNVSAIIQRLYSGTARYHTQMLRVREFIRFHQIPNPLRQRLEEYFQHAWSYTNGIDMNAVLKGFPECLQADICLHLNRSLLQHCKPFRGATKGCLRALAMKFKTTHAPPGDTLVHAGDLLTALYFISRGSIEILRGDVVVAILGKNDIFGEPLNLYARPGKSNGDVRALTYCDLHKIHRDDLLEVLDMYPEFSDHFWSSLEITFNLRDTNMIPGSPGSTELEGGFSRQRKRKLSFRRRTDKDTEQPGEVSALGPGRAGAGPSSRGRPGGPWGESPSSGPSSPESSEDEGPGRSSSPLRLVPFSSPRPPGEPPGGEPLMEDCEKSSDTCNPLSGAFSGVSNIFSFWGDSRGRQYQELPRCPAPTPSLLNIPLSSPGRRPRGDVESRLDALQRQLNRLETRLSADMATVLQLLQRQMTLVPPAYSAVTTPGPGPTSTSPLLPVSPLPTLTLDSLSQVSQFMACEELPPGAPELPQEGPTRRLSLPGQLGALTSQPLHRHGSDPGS

pEC50, pIC50: −log10 of the molar value. In brackets after ≈: the same amount, converted by molar mass.

Regarding `Cc1csc(NC(=O)CSc2ncnc3c2cnn3-c2ccccc2Cl)n1`, the “fold change (FC)” value in [1] came out at 5. The compound further came in with a logD in data set [2] of 3.8. In addition, the negative-log EC50 (pEC50) in data set [3] is 5.60.
As for `Cc1csc(NC(=O)CSc2ncnc3c2cnn3-c2ccccc2)n1`, in [3], the pEC50 was less than 4.00.
In the case of `O=C(CSc1ncnc2c1cnn2-c1ccccc1Cl)Nc1ccccc1`, in data set [1], the “fold change (FC)” value came to 5. This compound also yielded a logD in data set [2] of 4.3. The compound further had a pEC50 in [3] of less than 4.00.
The like results for `Cc1ccc(NC(=O)CSc2ncnc3c2cnn3-c2ccccc2Cl)nc1` were, in that order, 5, 4.2 and 6.30.
In the case of `O=C(CSc1ncnc2c1cnn2-c1ccccc1Cl)Nc1ncccn1`, the “fold change (FC)” value in data set [1] came out at 5. In addition, the logD in [2] is 2.2. The pEC50 in data set [3] is less than 4.00.
The like results for `Cn1ccc(NC(=O)CSc2ncnc3c2cnn3-c2ccccc2Cl)n1` were, in that order, 5, 2.5 and 4.80.
In data set [2], `Cc1csc(NC(=O)COc2ncnc3c2cnn3-c2ccccc2Cl)n1` gave a logD of 3.2. In [3], this compound had a pEC50 of 5.80.
With `COCC[C@H](Oc1ncnc2c1cnn2-c1ccccc1Cl)C(=O)Nc1ccc(C)cn1`, the Vd in data set [4] worked out at 3.2 L/kg. The compound further yielded a bioavailability in data set [5] of 53%. This compound also came in with a CLint in data set [6] of 35 µL/min/1e6 cells. In addition, the clearance in [7] turned out to be 34 mL/min/kg. The compound further came in with a solubility in data set [8] of 95 µM (≈ 43 µg/mL). In addition, the logD in data set [2] was determined as 3.9. Moreover, in [3], the pEC50 is 7.30. This compound also had a pIC50 in data set [9] of 4.66.
Consider `COCC[C@H](Oc1ncnc2c1cnn2-c1ccccc1C(F)(F)F)C(=O)Nc1ccc(C)cn1`, for which the CLint in data set [6] worked out at 27 µL/min/1e6 cells.
As to `COCC[C@H](Oc1ncnc2c1cnn2-c1ccccc1OC)C(=O)Nc1ccc(C)cn1`, in data set [6], the CLint came out at 132 µL/min/1e6 cells. For the same compound, in data set [8], the concentration in solution (solubility) came to 86 µM (≈ 38.6 µg/mL). Also, the log distribution coefficient (logD) in [2] came out at 3.5. The negative logarithm of the EC50 (pEC50) in [3] is 6.90. Besides, in data set [9], the pIC50 was less than 4.48.
As to `CCCCC(Sc1ncnc2c1cnn2-c1ccccc1Cl)C(=O)Nc1nc(C)cs1` (racemic), in [1], the “fold change (FC)” value worked out at 5. In addition, the logD in data set [2] worked out at 6.4. Further, the negative-log EC50 (pEC50) in [3] is 6.20.
The corresponding values for `COCCC(Sc1ncnc2c1cnn2-c1ccccc1Cl)C(=O)Nc1nc(C)cs1` (racemic) are 5, 4.8 and 6.10.
Consider `COCCOCCC(Sc1ncnc2c1cnn2-c1ccccc1Cl)C(=O)Nc1nc(C)cs1` (racemic), for which, in data set [1], the “fold change (FC)” value is given as 5. Besides, in data set [2], the logD was found to be 4.7. The compound further showed a pEC50 in [3] of 5.50.
The corresponding values for `Cc1csc(NC(=O)C(Sc2ncnc3c2cnn3-c2ccccc2Cl)c2ccccc2)n1` (racemic) are 5, 5.6 and less than 4.00.
In data set [2], `CCCCC(Oc1ncnc2c1cnn2-c1ccccc1Cl)C(=O)Nc1nc(C)cs1` (racemic) had a logD of 5.7. Besides, the pEC50 in data set [3] was 6.90.
The corresponding values for `COCCC(Oc1ncnc2c1cnn2-c1ccccc1Cl)C(=O)Nc1ccc(C)cn1` (racemic) are 4.1 and 7.00.
In the case of `COCCC(Oc1ncnc2c1cnn2-c1ccccc1C)C(=O)Nc1ccc(C)cn1` (racemic), in [2], the logD came to 4.2. The same compound gave a pEC50 in data set [3] of 6.50.
With `COCCC(Oc1ncnc2c1cnn2-c1ccccc1OC)C(=O)Nc1ccc(C)cn1` (racemic), the logD in [2] was found to be 3.5. In [3], this compound had a pEC50 of 6.70.

A word on the logD: it is lipophilicity at a set pH, counting ionised and neutral species. What is called pEC50 is the negative decadic logarithm of the EC50, by convention in mol/L. Low values mean a large EC50, high ones a small EC50. By bioavailability is commonly meant the share of a dose that reaches the circulation, judged against a reference dose that is usually intravenous. Low readings indicate poor availability, high ones good availability. The term clearance denotes the volume of plasma or blood freed of the substance per unit of time. Read a low clearance as inefficient removal. By solubility is commonly meant how much of the substance goes into solution per volume. Lower therefore signals a poorly soluble substance. The pIC50 is the negative decadic logarithm of the IC50, by convention in mol/L. Low readings indicate a high IC50, high ones a low IC50.
